The values that follow come from the NIST ThermoML archive (doi:10.1021/acs.jced.9b00726).

The nature of this series: activity coefficient (dimensionless); of the first substance listed, at infinite dilution; xn = mol fraction of the nth substance listed. The following applies: 100 kPa, Liquid, inert gas stripping, x1 = 0.

Several values for one entry are separate records, joined by “and”; a condition that tells them apart may be missing. Equal values may be shown once. Numbers after ± are expanded uncertainties.

`CCC(=O)CC` [pentan-3-one] + O: the activity coefficient is, setting by setting: (273.35 K) 67.9 ± 8.7; (283.15 K) 86.9 ± 8.7; (288.15 K) 92.8 ± 8.3; (293.15 K) 101 ± 9; (298.15 K) 114 and 112; (303.15 K) 118 ± 11. The activity coefficient reads like this: (308.15 K) 129 ± 12; (313.15 K) 130 ± 12; (318.15 K) 137 and 133; (323.15 K) 142 ± 13; (333.15 K) 148 ± 13.

For the molecule `CC(=O)C(C)(C)C` [3,3-dimethyl-2-butanone] + O, the activity coefficient is, setting by setting: (278.15 K) 217 ± 20; (288.15 K) 272 ± 25; (298.15 K) 321 ± 29; (308.15 K) 345 ± 32; (318.15 K) 370 ± 34; (328.15 K) 379 ± 35.

On to `CC(=O)CC(C)C` [4-methylpentan-2-one] + O, for which the activity coefficient is 239 ± 24 (278.15 K); 277 and 287 (288.15 K); 327 ± 30 (298.15 K); 370 ± 34 (308.15 K); 405 ± 37 (318.15 K); 410 ± 38 (328.15 K).

With `CC(=O)C(C)C` [3-methyl-2-butanone] + O, the activity coefficient came to 64.4 ± 8.2 (278.15 K); 72.9 ± 7.2 (288.15 K); 91 ± 8.1 (298.15 K); 102 ± 9.1 (308.15 K); 112 ± 9.8 (318.15 K); 119 ± 10 (328.15 K).

As for `CCCCC(C)=O` [2-hexanone] + O, the activity coefficient worked out at 257 ± 33 (278.15 K); 331 ± 34 (288.15 K); 384 ± 35 (298.15 K); 422 ± 39 (308.15 K); 471 ± 61 (318.15 K); 456 ± 42 (328.15 K).

Take `CCCC(C)=O` [pentan-2-one] + O: the activity coefficient is, setting by setting: (273.17 K) 61.4 ± 6.1; (278.15 K) 67.2 ± 6.7; (288.15 K) 78.7 ± 7; (298.15 K) 95.9 ± 8.6; (308.15 K) 107 ± 9.4; (318.15 K) 121 ± 11. The activity coefficient was 129 ± 11 (328.15 K) and 130 ± 11 (333.15 K).

On to `CCC(=O)C(C)C` [2-methyl-3-pentanone] + O, for which the activity coefficient is, setting by setting: (278.15 K) 269 ± 58; (288.15 K) 329 ± 71; (298.15 K) 391 ± 51; (308.15 K) 442 ± 58; (318.15 K) 467 ± 61; (328.15 K) 491 ± 64.

Take `CCC(C)C(C)=O` (stereo unspecified) [3-methyl-2-pentanone] + O: the activity coefficient turned out to be 216 ± 47 (278.15 K); 268 ± 58 (288.15 K); 296 ± 48 (298.15 K); 332 ± 43 (308.15 K); 358 ± 46 (318.15 K); 380 ± 49 (328.15 K).

In the case of `CCCC(=O)CC` [3-hexanone] + O, the activity coefficient is, setting by setting: (278.15 K) 260 ± 34; (288.15 K) 340 ± 44; (298.15 K) 418 ± 43; (308.15 K) 458 ± 42; (319.15 K) 515 ± 47; (328.15 K) 524 ± 48.
